# According to patent US20080108568A1, “COMPOUNDS FOR IMPROVING LEARNING AND MEMORY” (TGEN, priority 2006, published 2008):
# Entries after “also recorded” stand apart in the source; their conditions may differ.
# Tests used:
# [1] = tested on: aged rats (18 months old); test: water escape radial arm maze test (4 of 8 arms platformed); assay type: in vivo, rat
# Description: Hydroxyfasudil was tested in vivo by administering to aged rats (18 months old) two doses of 0.75 mg/kg and 0.375 mg/kg, delivered subcutaneously each day for a period of 4-5 days before testing. During testing, hydroxyfasudil was administered in the morning of each testing day. Two control groups were used, with one group being untreated and the other group treated with the vehicle (saline). Both control groups include 9 members, with an age of 4 months.
# The rats were then tested using the water escape radial arm maze test. The radial arm maze is a swim-based test without the need for food deprivation. The maze consists of 8 radial arms, with 4 of the arms having a submerged platform. […] The rat was given 180 seconds to locate a platform. If the rat located a platform, the rat was allowed 15 seconds on the platform, and was then removed. When a rat found a platform, that platform was removed prior to beginning the next trial. Each rat was subjected to 4 trials per day, with 1 trial per platform and 30 seconds between trials. Each rat was tested over a period of 12 days, with the first day consisting of training, days 2-7 considered “initial,” and days 8-12 considered “latter.”
# Additional efficacy testing was performed using twenty-seven 18-month old male rats were utilized and divided randomly into three treatment groups: saline vehicle (“Aged Vehicle”), hydroxyfasudil in saline at a dose of 0.1875 mg per day (“Aged Low Dose”), and hydroxyfasudil at a dose of 0.3750 mg per day (“Aged High Dose”). Daily injections of the assigned substrate began four days prior to behavioral testing and continued throughout testing, with injections given approximately one hour before daily testing ensued. Animals were tested 4 trials per day for 12 consecutive days. Following the water radial arm maze, spatial reference memory was assessed using the Morris water maze. This testing consisted of 4 trials per day for 4 days with an additional probe trial on the final day.
# Using the protocol described above for hydroxyfasudil, rats were treated with from 1 mg/kg to 2 mg/kg of fenretinide. The rats were subjected to the Radial Arm Maze and the Morris Water Maze described above.
# (§1) Aged animals were pre-loaded for 14 days at 10mg/kg/day (FAS LOW DOSE+PRIMING) or at 3 mg/kg/day (FAS LOW DOSE). After 14 days all animals were administered 3 mg/kg/day. Vehicle was normal saline (0.9%). The rats were subjected to the Radial Arm Maze and the Morris Water Maze described above.
# [2] = tested on: aged (18-months old) rats; test: tolerability observation during daily sub-cutaneous dosing; assay type: in vivo, rat; conditions: 10 mg/kg/day s.c., after 7 days of drug delivery; animals switched to the low dose
# Description: (§2) This experiment included a decreased pre-loading phase, a more difficult version of the working memory trial (where 7 out of 8 arms were platformed), and an elongated version of the Morris maze (7 days plus a “probe” trial). Fasudil was delivered via daily sub-cutaneous injections to aged (18-months old) rats at doses of 3 mg/kg/day (n=8) or 10 mg/kg/day (n=8). Controls included both aged and young (4-months old) rats injected daily with vehicle (normal saline). The low dose for Fasudil was based upon the evidence in Example 3 showing efficacy and the high dose was based on that reported in the literature as a commonly used low therapeutic dose. There was a one day loading period for this experiment.
# [3] = tested on: aged (18-months old) rats; test: water escape radial arm maze, more difficult version of the working memory trial (7 out of 8 arms platformed); assay type: in vivo, rat
# Description: as §2
# aged rats = test: Morris water maze (reference memory); assay type: in vivo, rat
# Description: The rats were also tested using the Morris water maze. The Morris water maze consists of a circular water bath with a single platform. The bath is divided into 4 quadrants and various annuli. A rat was placed in the water bath and the time and distance that the rat required to reach the platform was measured. The solving strategy used by the rat was also noted. The movement of the rat was tracked using a digital tracking system. Each rat underwent 4 trials per day, with entry into the maze varied by quadrant for each trial. The Morris water maze included 5 days of testing, with the first 4 days involving testing and day 5 involving a probe trial.
# as §1
# Fasudil was also delivered via daily sub-cutaneous injections to aged (18-months old) rats at doses of 3 mg/kg/day (n=8) or 30 mg/kg/day (n=8). Controls included both aged and young (4-months old) rats injected daily with vehicle (normal saline). The low dose for Fasudil was based upon the previous study showing efficacy with 0.750 mg/kg/day hydroxyfasudil and the high dose was based on that reported in the literature as a commonly used therapeutic dose.
# [4] = tested on: “memory molecule” transcripts in the hippocampus; test: expression profile of the entire hippocampus of hydroxyfasudil treated animals; assay type: in vivo; conditions: FIG. 6
# Excerpt: The tissue source is the entire hippocampus.
# After testing, the rats were terminated and the brain dissected.
# [5] = rats, 1 mg/kg to 2 mg/kg, FIG. 7
smiles,measurement,setting,value
CC1=C(/C=C/C(C)=C/C=C/C(C)=C/C(=O)Nc2ccc(O)cc2)C(C)(C)CCC1 [fenretinide],working memory,"[1]; 6 rats per group, FIG. 7 legend",improving working memory
same,"memory, greater doses versus smaller doses",[1]; [5],improved memory more than smaller doses
same,"number of incorrect errors made by the rats, versus the control",[1]; [5],lowered the number of incorrect errors
"O=S(=O)(c1cccc2cnccc12)N1CCCNCC1 [Fasudil, fasudil]",trauma in dosed animals,[2],began to show similar trauma as in the previous study
same,memory performance,[3]; FIG. 12 legend,improves memory performance
same,working memory performance,"[3]; aged rats, 3 or 10 mg/kg/day s.c. (10 mg/kg/day switched to low dose after 7 days), especially trials 6 and 7, FIG. 12",significant improvement in working memory performance
same,efficacy of the low dose (evidence in Example 3),aged rats; 3 mg/kg/day s.c.,efficacy
same,"reference memory performance (inches swam to locate the hidden platform), by day","aged rats; 14 days pre-loading at 10 or 3 mg/kg/day, then 3 mg/kg/day, collapsed across trials each day, FIG. 11A",improves reference memory performance
same,"reference memory performance (inches swam to locate the hidden platform), by trial","aged rats; 14 days pre-loading at 10 or 3 mg/kg/day, then 3 mg/kg/day, collapsed by trial for all four days, FIG. 11B",improves reference memory performance
O=c1[nH]ccc2c(S(=O)(=O)N3CCCNCC3)cccc12 [hydroxyfasudil],“memory molecule” transcripts in the hippocampus,[4],alteration of “memory molecule” transcripts
same,memory (working memory),"[1]; 18-month old male rats, 0.1875 mg per day and 0.3750 mg per day, daily injections from four days before testing, FIG. 16",improved memory; also recorded: improves working memory
same,working memory,[1]; FIG. 5 legend,improves working memory
same,memory,"[1]; aged rats, 0.75 mg/kg and 0.375 mg/kg s.c. daily, FIGS. 3-5",improved memory
same,learning scores (orthogonal measures of working memory),"[1]; aged rats, 0.75 mg/kg and 0.375 mg/kg subcutaneously each day, FIGS. 3-4",improved learning scores
same,"improvements of learning, higher doses versus smaller doses","[1]; aged rats, 0.75 mg/kg vs 0.375 mg/kg s.c. daily, FIGS. 3-4",greater improvements of learning
same,"improvements of memory, higher doses versus smaller doses","[1]; aged rats, 0.75 mg/kg vs 0.375 mg/kg s.c. daily, FIGS. 3-5",greater improvements of memory
same,performance of aging rats compared with young rats,[1]; aging rats receiving the compound,perform at a level comparable to young rats
